PubChem BioAssay AID2060906 (Molecular Pharmacology Branch, DTP, NCI, 2025)

Tested on: 485176-168-R4-J1-PDC complex spheroid growth
Assay: Anticancer human tumor 485176-168-R4-J1-PDC patient-derived pancreatic adenocarcinoma cell line growth inhibition [RAS]
Settings: for IC50: curve of first compound; for viability, T/C: stronger effect = lower value
Method in brief: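 Agents were tested in combination matrices in half-log decrements from a top concentration at or near clinical Cmax (10 microM if undetermined). Targets were multi-cell spheroids of tumour lines plus HUVEC and MSC stromal cells.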

[1] = second compound 0.000949 µM, first compound 0.00316 µM
[2] = second compound 0.000949 µM, first compound 0.01 µM
[3] = second compound 0.000949 µM, first compound 0.0316 µM
[4] = second compound 0.000949 µM, first compound 0.1 µM
[5] = second compound 0.003 µM, first compound 0.00316 µM
[6] = second compound 0.003 µM, first compound 0.01 µM
[7] = second compound 0.003 µM, first compound 0.0316 µM
[8] = second compound 0.003 µM, first compound 0.1 µM
[9] = second compound 0.00949 µM, first compound 0.00316 µM
[10] = second compound 0.00949 µM, first compound 0.01 µM
[11] = second compound 0.00949 µM, first compound 0.0316 µM
[12] = second compound 0.00949 µM, first compound 0.1 µM
[13] = second compound 0.03 µM, first compound 0.00316 µM
[14] = second compound 0.03 µM, first compound 0.01 µM
[15] = second compound 0.03 µM, first compound 0.0316 µM
[16] = second compound 0.03 µM, first compound 0.1 µM
[17] = second compound 0.0949 µM, first compound 0.00316 µM
[18] = second compound 0.0949 µM, first compound 0.01 µM
[19] = second compound 0.0949 µM, first compound 0.0316 µM
[20] = second compound 0.0949 µM, first compound 0.1 µM
[21] = second compound 0.3 µM, first compound 0.00316 µM
[22] = second compound 0.3 µM, first compound 0.01 µM
[23] = second compound 0.3 µM, first compound 0.0316 µM
[24] = second compound 0.3 µM, first compound 0.1 µM
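Further: spheroids exposed to compounds for seven days before readout.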
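Wherever viability, T/C is given: luminescence viability expressed relative to DMSO vehicle wells set as 100%.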

Q: Which IC50 (second compound 0.000949 µM) does the source give for CC(C)n1nc(-c2ccc3oc(N)nc3c2)c2c(N)ncnc21 + CCn1c(-c2cc(N3CCN(C)CC3)cnc2C(C)OC)c2c3cc(ccc31)-c1csc(n1)CC(NC(=O)C1CC1C)C(=O)N1CCCC(N1)C(=O)OCC(C)(C)C2 here?
A: The IC50 was 20.3 nM.

Q: What about the IC50 (second compound 0.003 µM) of the same molecule?
A: Its IC50 is 23 nM.

Q: What about the IC50 (second compound 0.00949 µM) of the same molecule?
A: Its IC50 is 18.5 nM.

Q: And the IC50 (second compound 0.03 µM)?
A: Its IC50 is 13.8 nM.

Q: And the IC50 (second compound 0.0949 µM)?
A: Its IC50 is 10.9 nM.

Q: And the IC50 (second compound 0.3 µM)?
A: The IC50 was 9.46 nM.

Q: And the viability, T/C (second compound 0.000949 µM, first compound 0.000316 µM)?
A: Its viability, T/C is 98.5%.

Q: What about the viability, T/C (second compound 0.000949 µM, first compound 0.001 µM) of the same molecule?
A: The viability, T/C was 93.7%.

Q: And the viability, T/C [1]?
A: Its viability, T/C is 76.8%.

Q: What about the viability, T/C [2] of the same molecule?
A: Its viability, T/C is 70.4%.

Q: And the viability, T/C [3]?
A: The viability, T/C was 37.4%.

Q: And the viability, T/C [4]?
A: Its viability, T/C is 19.2%.

Q: What about the viability, T/C (second compound 0.003 µM, first compound 0.000316 µM) of the same molecule?
A: Its viability, T/C is 96.8%.

Q: What about the viability, T/C (second compound 0.003 µM, first compound 0.001 µM) of the same molecule?
A: The viability, T/C was 89.6%.

Q: And the viability, T/C [5]?
A: The viability, T/C was 93.3%.

Q: And the viability, T/C [6]?
A: The viability, T/C was 65.9%.

Q: What about the viability, T/C [7] of the same molecule?
A: The viability, T/C was 44.4%.

Q: What about the viability, T/C [8] of the same molecule?
A: Its viability, T/C is 18.5%.

Q: What about the viability, T/C (second compound 0.00949 µM, first compound 0.000316 µM) of the same molecule?
A: The viability, T/C was 97.1%.

Q: What about the viability, T/C (second compound 0.00949 µM, first compound 0.001 µM) of the same molecule?
A: The viability, T/C was 89%.

Q: What about the viability, T/C [9] of the same molecule?
A: The viability, T/C was 76.9%.

Q: And the viability, T/C [10]?
A: Its viability, T/C is 63.9%.

Q: What about the viability, T/C [11] of the same molecule?
A: Its viability, T/C is 38.4%.

Q: And the viability, T/C [12]?
A: Its viability, T/C is 19.1%.

Q: And the viability, T/C (second compound 0.03 µM, first compound 0.000316 µM)?
A: Its viability, T/C is 95.9%.

Q: What about the viability, T/C (second compound 0.03 µM, first compound 0.001 µM) of the same molecule?
A: Its viability, T/C is 81%.

Q: What about the viability, T/C [13] of the same molecule?
A: The viability, T/C was 63%.

Q: What about the viability, T/C [14] of the same molecule?
A: The viability, T/C was 63.3%.

Q: And the viability, T/C [15]?
A: Its viability, T/C is 34.8%.

Q: And the viability, T/C [16]?
A: Its viability, T/C is 23.6%.

Q: What about the viability, T/C (second compound 0.0949 µM, first compound 0.000316 µM) of the same molecule?
A: Its viability, T/C is 94.3%.

Q: What about the viability, T/C (second compound 0.0949 µM, first compound 0.001 µM) of the same molecule?
A: The viability, T/C was 84.8%.

Q: And the viability, T/C [17]?
A: The viability, T/C was 61.5%.

Q: What about the viability, T/C [18] of the same molecule?
A: Its viability, T/C is 57.3%.

Q: And the viability, T/C [19]?
A: The viability, T/C was 30.9%.

Q: And the viability, T/C [20]?
A: The viability, T/C was 17.4%.

Q: And the viability, T/C (second compound 0.3 µM, first compound 0.000316 µM)?
A: Its viability, T/C is 81.1%.

Q: And the viability, T/C (second compound 0.3 µM, first compound 0.001 µM)?
A: Its viability, T/C is 77%.

Q: And the viability, T/C [21]?
A: The viability, T/C was 68.2%.

Q: And the viability, T/C [22]?
A: Its viability, T/C is 50.2%.

Q: What about the viability, T/C [23] of the same molecule?
A: The viability, T/C was 25.9%.

Q: And the viability, T/C [24]?
A: The viability, T/C was 16.1%.

Q: Which results are given for Nc1ccn(C2OC(CO)C(O)C2(F)F)c(=O)n1 (stereo unspecified) + CCn1c(-c2cc(N3CCN(C)CC3)cnc2C(C)OC)c2c3cc(ccc31)-c1csc(n1)CC(NC(=O)C1CC1C)C(=O)N1CCCC(N1)C(=O)OCC(C)(C)C2?
A: IC50 (second compound 0.000949 µM): 17 nM; IC50 (second compound 0.003 µM): 17.4 nM; IC50 (second compound 0.00949 µM): 18.2 nM; IC50 (second compound 0.03 µM): 12.5 nM; IC50 (second compound 0.0949 µM): 14.4 nM; IC50 (second compound 0.3 µM): 19.1 nM; viability, T/C [1]: 100%; viability, T/C [2]: 73.4%; viability, T/C [3]: 23.1%; viability, T/C [4]: 9.57%; viability, T/C (second compound 0.000949 µM, first compound 0.316 µM): 11.2%; viability, T/C (second compound 0.000949 µM, first compound 1 µM): 11.5%; viability, T/C [5]: 94%; viability, T/C [6]: 80.6%; viability, T/C [7]: 17.1%; viability, T/C [8]: 6.87%; viability, T/C (second compound 0.003 µM, first compound 0.316 µM): 8.05%; viability, T/C (second compound 0.003 µM, first compound 1 µM): 13.2%; viability, T/C [9]: 79.7%; viability, T/C [10]: 86.2%; viability, T/C [11]: 19.7%; viability, T/C [12]: 7.74%; viability, T/C (second compound 0.00949 µM, first compound 0.316 µM): 10.7%; viability, T/C (second compound 0.00949 µM, first compound 1 µM): 12%; viability, T/C [13]: 97.9%; viability, T/C [14]: 58.2%; viability, T/C [15]: 15.4%; viability, T/C [16]: 12.6%; viability, T/C (second compound 0.03 µM, first compound 0.316 µM): 12.6%; viability, T/C (second compound 0.03 µM, first compound 1 µM): 11.5%; viability, T/C [17]: 102%; viability, T/C [18]: 63.8%; viability, T/C [19]: 20.7%; viability, T/C [20]: 9.33%; viability, T/C (second compound 0.0949 µM, first compound 0.316 µM): 11.3%; viability, T/C (second compound 0.0949 µM, first compound 1 µM): 7.79%; viability, T/C [21]: 73%; viability, T/C [22]: 80.2%; viability, T/C [23]: 29.2%; viability, T/C [24]: 9.97%; viability, T/C (second compound 0.3 µM, first compound 0.316 µM): 9.95%; viability, T/C (second compound 0.3 µM, first compound 1 µM): 11.2%

Q: What does the source list for Cc1nc(N2CCC3(CC2)COC(C)C3N)c(CO)nc1Sc1ccnc(N)c1Cl (stereo unspecified) + C=CC(=O)N1CCN(c2nc(OCC3CCCN3C)nc3c(F)c(-c4nc(N)cc(C)c4C(F)(F)F)c(Cl)cc23)C(C)C1?
A: IC50 (second compound 0.00316 µM): > 10000 nM; IC50 (second compound 0.01 µM): > 10000 nM; IC50 (second compound 0.0316 µM): > 10000 nM; IC50 (second compound 0.1 µM): > 10000 nM; IC50 (second compound 0.316 µM): > 10000 nM; IC50 (second compound 1 µM): > 10000 nM; viability, T/C (second compound 0.00316 µM, first compound 0.0316 µM): 95.1%; viability, T/C (second compound 0.00316 µM, first compound 0.1 µM): 91.5%; viability, T/C (second compound 0.00316 µM, first compound 0.316 µM): 77.3%; viability, T/C (second compound 0.00316 µM, first compound 1 µM): 71.3%; viability, T/C (second compound 0.00316 µM, first compound 3.16 µM): 79.7%; viability, T/C (second compound 0.00316 µM, first compound 10 µM): 76%; viability, T/C (second compound 0.01 µM, first compound 0.0316 µM): 96.3%; viability, T/C (second compound 0.01 µM, first compound 0.1 µM): 76.5%; viability, T/C (second compound 0.01 µM, first compound 0.316 µM): 78.7%; viability, T/C (second compound 0.01 µM, first compound 1 µM): 74.2%; viability, T/C (second compound 0.01 µM, first compound 3.16 µM): 75.3%; viability, T/C (second compound 0.01 µM, first compound 10 µM): 90.6%; viability, T/C (second compound 0.0316 µM, first compound 0.0316 µM): 94%; viability, T/C (second compound 0.0316 µM, first compound 0.1 µM): 91.5%; viability, T/C (second compound 0.0316 µM, first compound 0.316 µM): 87.2%; viability, T/C (second compound 0.0316 µM, first compound 1 µM): 71.8%; viability, T/C (second compound 0.0316 µM, first compound 3.16 µM): 66.6%; viability, T/C (second compound 0.0316 µM, first compound 10 µM): 71.7%; viability, T/C (second compound 0.1 µM, first compound 0.0316 µM): 91.1%; viability, T/C (second compound 0.1 µM, first compound 0.1 µM): 92.8%; viability, T/C (second compound 0.1 µM, first compound 0.316 µM): 82.5%; viability, T/C (second compound 0.1 µM, first compound 1 µM): 65.1%; viability, T/C (second compound 0.1 µM, first compound 3.16 µM): 77.6%; viability, T/C (second compound 0.1 µM, first compound 10 µM): 74.6%; viability, T/C (second compound 0.316 µM, first compound 0.0316 µM): 101%; viability, T/C (second compound 0.316 µM, first compound 0.1 µM): 99.8%; viability, T/C (second compound 0.316 µM, first compound 0.316 µM): 81.8%; viability, T/C (second compound 0.316 µM, first compound 1 µM): 83.6%; viability, T/C (second compound 0.316 µM, first compound 3.16 µM): 74.2%; viability, T/C (second compound 0.316 µM, first compound 10 µM): 71%; viability, T/C (second compound 1 µM, first compound 0.0316 µM): 103%; viability, T/C (second compound 1 µM, first compound 0.1 µM): 91%; viability, T/C (second compound 1 µM, first compound 0.316 µM): 80.4%; viability, T/C (second compound 1 µM, first compound 1 µM): 73.2%; viability, T/C (second compound 1 µM, first compound 3.16 µM): 81.5%; viability, T/C (second compound 1 µM, first compound 10 µM): 76.5%
